According to ChEMBL document CHEMBL1201862, “PubChem BioAssay data set” (2004):
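Exposure lasted 48 hours, with cells grown in 96-well plates and compounds tested at five concentrations. GI50 marks 50% less growth.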 Calls of active or inactive are those of the source. No stated cut-off is given here; in the data, active = GI50 up to about 1.1 µM and inactive = higher.

Experiments:
Assay in all cases: DTP human tumour cell line panel, 48 h
NCI-H522 = tested on: NCI-H522
CAKI-1 = tested on: CAKI-1
K562 = tested on: K562
HT-29 = tested on: HT-29
SNB-19 = tested on: SNB-19
IGROV-1 = tested on: IGROV-1
MDA-N = tested on: MDA-N
OVCAR-3 = tested on: OVCAR-3
A549 = tested on: A549
A498 = tested on: A498
SNB-75 = tested on: SNB-75
ACHN = tested on: ACHN
UACC-62 = tested on: UACC-62
SK-MEL-2 = tested on: SK-MEL-2
BT-549 = tested on: BT-549
NCI-H226 = tested on: NCI-H226
SF-268 = tested on: SF-268
T47D = tested on: T47D
M14 = tested on: M14
SN12C = tested on: SN12C

Row | Structure (SMILES) | GI50 (NCI-H522) | GI50 (CAKI-1) | GI50 (K562) | GI50 (HT-29) | GI50 (SNB-19) | GI50 (IGROV-1) | GI50 (MDA-N) | GI50 (OVCAR-3) | GI50 (A549) | GI50 (A498) | GI50 (SNB-75) | GI50 (ACHN) | GI50 (UACC-62) | GI50 (SK-MEL-2) | GI50 (BT-549) | GI50 (NCI-H226) | GI50 (SF-268) | GI50 (T47D) | GI50 (M14) | GI50 (SN12C)
1 | O=[N+]([O-])c1ccc(C[S+]([O-])Cc2ccccc2)cc1 (stereo not given) | > 100 µM (inactive) | > 100 µM (inactive) | > 100 µM (inactive) | > 100 µM (inactive) | > 100 µM (inactive) | > 100 µM (inactive) | > 100 µM (inactive) | > 100 µM (inactive) | > 100 µM (inactive) | > 100 µM (inactive) | 39.9 µM (inactive) | > 100 µM (inactive) | > 100 µM (inactive) | > 100 µM (inactive) | > 100 µM (inactive) | > 100 µM (inactive) | > 100 µM (inactive) | > 100 µM (inactive) | > 100 µM (inactive) | > 100 µM (inactive)
2 | COc1c(OC)c(OC)c(-c2cc(=O)c3c(OC)c(OC)c(OC)c(OC)c3o2)c(OC)c1OC | 16.2 µM (inactive) | 43.4 µM (inactive) | 41.1 µM (inactive) | 28.8 µM (inactive) | 51.9 µM (inactive) | 25.5 µM (inactive) | 38 µM (inactive) | 16.3 µM (inactive) | 35 µM (inactive) | 31.3 µM (inactive) | 57.5 µM (inactive) | 32.7 µM (inactive) | 34.3 µM (inactive) | 56.6 µM (inactive) | 34.5 µM (inactive) | 54.2 µM (inactive) | 69.5 µM (inactive) | 9.14 µM (inactive) | 44 µM (inactive) | 50.5 µM (inactive)
3 | CCC(c1ccc2cc(O)ccc2c1)C(C)(C)C(=O)O (stereo not given) | > 100 µM (inactive) | > 100 µM (inactive) | > 100 µM (inactive) | > 100 µM (inactive) | > 100 µM (inactive) | > 100 µM (inactive) | > 100 µM (inactive) | > 100 µM (inactive) | > 100 µM (inactive) | > 100 µM (inactive) | > 100 µM (inactive) | > 100 µM (inactive) | > 100 µM (inactive) | > 100 µM (inactive) | > 100 µM (inactive) | > 100 µM (inactive) | > 100 µM (inactive) | > 100 µM (inactive) | > 100 µM (inactive) | > 100 µM (inactive)
4 | Cc1ccc(NCCN(C)C)c2c(=O)c3cc(O)ccc3oc12 | 8.15 µM (inactive) | 10.6 µM (inactive) | 4.09 µM (inactive) | 11.2 µM (inactive) | 11.3 µM (inactive) | 12.3 µM (inactive) | 10.7 µM (inactive) | 16.5 µM (inactive) | 6.25 µM (inactive) | 14.9 µM (inactive) | 4.79 µM (inactive) | 4.62 µM (inactive) | 10.1 µM (inactive) | 20.6 µM (inactive) | 16.7 µM (inactive) | 15.8 µM (inactive) | 5.35 µM (inactive) | 16.5 µM (inactive) | 12.4 µM (inactive) | 7.59 µM (inactive)
5 | CC(=O)Nc1nc(O)c2nc(C=O)cnc2n1 | > 100 µM (inactive) | > 100 µM (inactive) | > 100 µM (inactive) | > 100 µM (inactive) | > 100 µM (inactive) | > 100 µM (inactive) | > 100 µM (inactive) | > 100 µM (inactive) | > 100 µM (inactive) | > 100 µM (inactive) | > 100 µM (inactive) | > 100 µM (inactive) | > 100 µM (inactive) | > 100 µM (inactive) | > 100 µM (inactive) | > 100 µM (inactive) | > 100 µM (inactive) | > 100 µM (inactive) | > 100 µM (inactive) | > 100 µM (inactive)
6 | COc1c2c(cc3c1-c1c(cc4c(c1OC)OCO4)C1OC3C(C)C1C)OCO2.COc1cc2c(c(OC)c1OC)-c1c(cc3c(c1OC)OCO3)C1OC2C(C)C1C (stereo not given) | 61.4 µM (inactive) | > 100 µM (inactive) | 72.8 µM (inactive) | 88.7 µM (inactive) | > 100 µM (inactive) | 70.6 µM (inactive) | > 100 µM (inactive) | 84.5 µM (inactive) | 97.5 µM (inactive) | > 100 µM (inactive) | 33 µM (inactive) | > 100 µM (inactive) | 73.8 µM (inactive) | > 100 µM (inactive) | 61.2 µM (inactive) | > 100 µM (inactive) | > 100 µM (inactive) | 26.1 µM (inactive) | > 100 µM (inactive) | > 100 µM (inactive)
7 | O=C(CCCN1CCC2(CC1)CC(=O)N(N1CCCCCC1)C2=O)c1ccccc1 | > 100 µM (inactive) | > 100 µM (inactive) | 70.8 µM (inactive) | 67.1 µM (inactive) | > 100 µM (inactive) | > 100 µM (inactive) | > 100 µM (inactive) | > 100 µM (inactive) | > 100 µM (inactive) | > 100 µM (inactive) | > 100 µM (inactive) | > 100 µM (inactive) | > 100 µM (inactive) | > 100 µM (inactive) | > 100 µM (inactive) | > 100 µM (inactive) | > 100 µM (inactive) | > 100 µM (inactive) | > 100 µM (inactive) | > 100 µM (inactive)
8 | CN(C)c1ccc(/C=C(\NC(=O)c2ccccc2)C(=O)NCC(=O)O)cc1 | > 100 µM (inactive) | > 100 µM (inactive) | > 100 µM (inactive) | > 100 µM (inactive) | > 100 µM (inactive) | > 100 µM (inactive) | > 100 µM (inactive) | > 100 µM (inactive) | > 100 µM (inactive) | > 100 µM (inactive) | > 100 µM (inactive) | > 100 µM (inactive) | > 100 µM (inactive) | > 100 µM (inactive) | > 100 µM (inactive) | > 100 µM (inactive) | > 100 µM (inactive) | > 100 µM (inactive) | > 100 µM (inactive) | > 100 µM (inactive)
9 | CCCC(=O)Nc1ncnc2c1ncn2C1OC2COP(=O)(O)OC2C1OC(=O)CCC (stereo not given) | > 100 µM (inactive) | > 100 µM (inactive) | > 100 µM (inactive) | > 100 µM (inactive) | > 100 µM (inactive) | 22.5 µM (inactive) | > 100 µM (inactive) | > 100 µM (inactive) | > 100 µM (inactive) | 31.9 µM (inactive) | 0.0246 µM (active) | > 100 µM (inactive) | > 100 µM (inactive) | > 100 µM (inactive) | > 1000 µM (inactive) | > 100 µM (inactive) | > 100 µM (inactive) | > 100 µM (inactive) | > 100 µM (inactive) | > 100 µM (inactive)
10 | CC1=NN2C(=N)/C(=C/c3ccccc3)C(=O)N=C2S1 | > 36.9 µM (inactive) | > 100 µM (inactive) | > 100 µM (inactive) | > 100 µM (inactive) | > 100 µM (inactive) | > 100 µM (inactive) | > 100 µM (inactive) | > 100 µM (inactive) | > 100 µM (inactive) | > 100 µM (inactive) | > 100 µM (inactive) | > 100 µM (inactive) | > 100 µM (inactive) | > 100 µM (inactive) | > 100 µM (inactive) | > 100 µM (inactive) | > 100 µM (inactive) | > 100 µM (inactive) | > 100 µM (inactive) | > 100 µM (inactive)
11 | CC(=N/NC(=S)N(C)C)/C(=N\NC(=S)N(C)C)c1ccccc1 | 1.78 µM (inactive) | 2.53 µM (inactive) | 5.15 µM (inactive) | 3.38 µM (inactive) | 2.56 µM (inactive) | 1.66 µM (inactive) | 2.11 µM (inactive) | 1.76 µM (inactive) | 2.76 µM (inactive) | 1.59 µM (inactive) | 2.12 µM (inactive) | 1.71 µM (inactive) | 1.94 µM (inactive) | 1.99 µM (inactive) | 2.17 µM (inactive) | 1.71 µM (inactive) | 2.07 µM (inactive) | 1.65 µM (inactive) | 1.97 µM (inactive) | 1.47 µM (inactive)
12 | [N-]=[N+]=NC1C(O)C(CO)OC1n1cnc2c(N)ncnc21 (stereo not given) | 65.8 µM (inactive) | 40.9 µM (inactive) | 19.3 µM (inactive) | 31 µM (inactive) | 59.4 µM (inactive) | 92.7 µM (inactive) | 71.3 µM (inactive) | > 100 µM (inactive) | 47.5 µM (inactive) | 66.8 µM (inactive) | 36.4 µM (inactive) | 5.28 µM (inactive) | 99.5 µM (inactive) | > 100 µM (inactive) | 54.8 µM (inactive) | 51.6 µM (inactive) | 51.1 µM (inactive) | 8.83 µM (inactive) | 36.6 µM (inactive) | 25.9 µM (inactive)
13 | C=C1C(C(O)C[C@H](C)C2O[C@@]3(CCCCO3)CCC2C)O[C@@H]2CCC3(CCC(/C=C/[C@@H](C)C4CC(C)=CC5(O4)O[C@H](C[C@](C)(O)C(=O)O)CCC5O)O3)OC2[C@@H]1O (stereo not given in full) | 0.00182 µM (active) | 0.0107 µM (active) | 0.00429 µM (active) | 0.00828 µM (active) | 0.0027 µM (active) | 0.0217 µM (active) | 0.00117 µM (active) | 0.00239 µM (active) | 0.0267 µM (active) | 0.00564 µM (active) | 0.000608 µM (active) | 0.0191 µM (active) | 0.00347 µM (active) | 0.00253 µM (active) | 0.00681 µM (active) | 0.00405 µM (active) | 0.00335 µM (active) | 0.0326 µM (active) | 0.00176 µM (active) | 0.0127 µM (active)
14 | CC[C@@]1(OC(=O)C(N)CCCCN)C(=O)OCc2c1cc1n(c2=O)Cc2cc3ccccc3nc2-1 (stereo not given in full) | 0.0454 µM (active) | < 0.0152 µM (active) | 0.103 µM (active) | 0.133 µM (active) | 0.0176 µM (active) | 0.212 µM (active) | 0.167 µM (active) | 0.352 µM (active) | 0.0274 µM (active) | 0.0802 µM (active) | 0.0336 µM (active) | 0.0135 µM (active) | < 0.0128 µM (active) | 0.5 µM (active) | 0.218 µM (active) | 0.111 µM (active) | 0.0169 µM (active) | 0.0326 µM (active) | 0.0204 µM (active) | < 0.0149 µM (active)
